This passage reports IC50 results from patent publication US9029377B2, “Platelet-activating factor receptor antagonists” (Merck Sharp & Dohme Corp., priority 2009, dated 2015).

This experiment deals with PAFR (Homo sapiens, UniProt P25105). Description: PAF Binding Assay (PAFR binding).
Chain of PAFR (P25105 whole entry): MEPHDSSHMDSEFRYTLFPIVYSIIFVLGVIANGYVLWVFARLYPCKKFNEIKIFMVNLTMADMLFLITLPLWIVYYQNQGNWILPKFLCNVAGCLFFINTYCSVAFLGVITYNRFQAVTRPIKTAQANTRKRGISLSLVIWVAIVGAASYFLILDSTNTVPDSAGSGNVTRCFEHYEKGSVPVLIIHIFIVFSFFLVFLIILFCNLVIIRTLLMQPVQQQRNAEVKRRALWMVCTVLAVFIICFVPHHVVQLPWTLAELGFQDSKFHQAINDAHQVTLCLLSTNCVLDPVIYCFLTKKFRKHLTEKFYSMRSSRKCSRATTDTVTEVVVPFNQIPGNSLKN
As to `CCc1cc(-c2cnc3ccnn3c2)ccc1S(=O)(=O)N[C@H]1CCC[C@@H](n2cnnc2)C1` [Compound 2Aau, 2-ethyl-4-pyrazolo[1,5-a]pyrimidin-6-yl-N-[(1S,3R)-3-(4H-1,2,4-triazol-4-yl)cyclohexyl]benzenesulfonamide], the IC50 – broadly, the concentration that gives 50% inhibition – turned out to be 0.244 µM.

On to `CCc1cc(-c2ccn3nccc3n2)ccc1S(=O)(=O)N[C@H]1CCC[C@@H](n2cnnc2)C1` [Compound 2Aav, 2-ethyl-4-pyrazolo[1,5-a]pyrimidin-5-yl-N-[(1S,3R)-3-(4H-1,2,4-triazol-4-yl)cyclohexyl]benzenesulfonamide], for which the IC50 was 0.0097 µM. The molecule `CCc1cc(-c2nccs2)ccc1S(=O)(=O)N[C@H]1CCC[C@@H](n2cnnc2)C1` [Compound 2Aaw, 2-ethyl-4-(1,3-thiazol-2-yl)-N-[(1S,3R)-3-(4H-1,2,4-triazol-4-yl)cyclohexyl]benzenesulfonamide] registered an IC50 of 0.045 µM. For `CCc1cc(-c2cncs2)ccc1S(=O)(=O)N[C@H]1CCC[C@@H](n2cnnc2)C1` [Compound 2Aax, 2-ethyl-4-(1,3-thiazol-5-yl)-N-[(1S,3R)-3-(4H-1,2,4-triazol-4-yl)cyclohexyl]benzenesulfonamide] the value was 0.203 µM; for `CCc1cc(-c2cscn2)ccc1S(=O)(=O)N[C@H]1CCC[C@@H](n2cnnc2)C1` [Compound 2Aay, 2-ethyl-4-(1,3-thiazol-4-yl)-N-[(1S,3R)-3-(4H-1,2,4-triazol-4-yl)cyclohexyl]benzenesulfonamide], 0.069 µM.

The molecule `CCc1cc(-c2ncns2)ccc1S(=O)(=O)N[C@H]1CCC[C@@H](n2cnnc2)C1` [Compound 2Aaz, 2-ethyl-4-(1,2,4-thiadiazol-5-yl)-N-[(1S,3R)-3-(4H-1,2,4-triazol-4-yl)cyclohexyl]benzenesulfonamide] had an IC50 of 0.39 µM. Turning to `CCc1cc(-c2noc(C3CC3)n2)ccc1S(=O)(=O)N[C@H]1CCC[C@@H](n2cnnc2C2CC2)C1` [Compound 2Ab, 4-(5-cyclopropyl-1,2,4-oxadiazol-3-yl)-2-ethyl-N-[(1S,3R)-3-(3-cycloropyl-4H-1,2,4-triazol-4-yl)cyclohexyl]benzenesulfonamide], the IC50 was found to be 0.0032 µM.

In turn, `CCc1cc(-c2ncc(COC)s2)ccc1S(=O)(=O)N[C@H]1CCC[C@@H](n2cnnc2)C1` [Compound 2Aba, 2-ethyl-4-[5-(methoxymethyl)-1,3-thiazol-2-yl]-N-[(1S,3R)-3-(4H-1,2,4-triazol-4-yl)cyclohexyl]benzenesulfonamide] gave an IC50 of 0.041 µM. The result for `CCc1cc(-c2noc(C3CC3)n2)ccc1S(=O)(=O)N[C@H]1CCC[C@@H](n2cnnc2C)C1` [Compound 2Abb, 4-(5-cyclopropyl-1,2,4-oxadiazol-3-yl)-2-ethyl-N-[(1S,3R)-3-(3-methyl-4H-1,2,4-triazol-4-yl)cyclohexyl]benzenesulfonamide] reads 0.002 µM; that for `CCc1cc(-c2ccc(OC(C)C)nc2)ccc1S(=O)(=O)N[C@H]1CCC[C@@H](n2cnnc2C)C1` [Compound 2Abc, 2-ethyl-4-(6-isopropoxypyridin-3-yl)-N-[(1S,3R)-3-(3-methyl-4H-1,2,4-triazol-4-yl)cyclohexyl]benzenesulfonamide], 0.0005 µM. In turn, `CCc1cc(-c2ccc(OC(F)(F)F)cc2)ccc1S(=O)(=O)N[C@H]1CCC[C@@H](n2cnnc2C)C1` [Compound 2Abd, 3-ethyl-N-[(1S,3R)-3-(3-methyl-4H-1,2,4-triazol-4-yl)cyclohexyl]-4′-(trifluoromethoxy)biphenyl-4-sulfonamide] came in with an IC50 of 0.0022 µM. As for `CCc1cc(-c2ccc(OCC(F)(F)F)nc2)ccc1S(=O)(=O)N[C@H]1CCC[C@@H](n2cnnc2C)C1` [Compound 2Abe, 2-ethyl-N-[(1S,3R)-3-(3-methyl-4H-1,2,4-triazol-4-yl)cyclohexyl]-4-[6-(2,2,2-trifluoroethoxy)pyridin-3-yl]benzenesulfonamide], the IC50 was 0.0002 µM. In turn, `CCc1cc(-c2ccc(OC(F)(F)F)c(F)c2)ccc1S(=O)(=O)N[C@H]1CCC[C@@H](n2cnnc2C)C1` [Compound 2Abf, 3-ethyl-3′-fluoro-N-[(1S,3R)-3-(3-methyl-4H-1,2,4-triazol-4-yl)cyclohexyl]-4′-(trifluoromethoxy)biphenyl-4-sulfonamide] displayed an IC50 of 0.0027 µM. Turning to `CCc1cc(OCCCC(F)(F)F)ccc1S(=O)(=O)N[C@H]1CCC[C@@H](n2cnnc2)C1` [Compound 2Abi, 2-ethyl-N-[(1S,3R)-3-(4H-1,2,4-triazol-4-yl)cyclohexyl]-4-(4,4,4-trifluorobutoxy)benzenesulfonamide], the IC50 was 0.0027 µM. For `CCc1cc(OCCCC(F)(F)F)ccc1S(=O)(=O)N[C@H]1CCC[C@@H](n2cnnc2C)C1` [Compound 2Abj, 2-ethyl-N-[(1S,3R)-3-(3-methyl-4H-1,2,4-triazol-4-yl)cyclohexyl]-4-(4,4,4-trifluorobutoxy)benzenesulfonamide] the value was 0.0027 µM. The result for `CCc1cc(OCCC(F)(F)F)ccc1S(=O)(=O)N[C@H]1CCC[C@@H](n2cnnc2)C1` [Compound 2Abk, 2-ethyl-N-[(1S,3R)-3-(4H-1,2,4-triazol-4-yl)cyclohexyl]-4-(3,3,3-trifluoropropoxy)benzenesulfonamide] reads 0.022 µM; that for `CCc1cc(-c2ccc(OC(F)(F)F)cc2C)ccc1S(=O)(=O)N[C@H]1CCC[C@@H](n2cnnc2)C1` [Compound 2Abl, 3-ethyl-2′-methyl-N-[(1S,3R)-3-(4H-1,2,4-triazol-4-yl)cyclohexyl]-4′-(trifluoromethoxy)biphenyl-4-sulfonamide], 0.03 µM.

In the case of `CCc1cc(-c2ccc(C(F)(F)F)cc2C(F)(F)F)ccc1S(=O)(=O)N[C@H]1CCC[C@@H](n2cnnc2)C1` [Compound 2Abm, 3-ethyl-N-[(1S,3R)-3-(4H-1,2,4-triazol-4-yl)cyclohexyl]-2′,4′-bis(trifluoromethyl)biphenyl-4-sulfonamide], the IC50 stood at 0.083 µM. Molecule `CCc1cc(-c2ccc(C(F)(F)F)cc2C)ccc1S(=O)(=O)N[C@H]1CCC[C@@H](n2cnnc2)C1` [Compound 2Abn, 3-ethyl-2′-methyl-N-[(1S,3R)-3-(4H-1,2,4-triazol-4-yl)cyclohexyl]-4′-(trifluoromethyl)biphenyl-4-sulfonamide] showed a half-maximal inhibitory concentration (IC50) of 0.022 µM. `CCc1cc(-c2cc(C(F)(F)F)cc(C(F)(F)F)c2)ccc1S(=O)(=O)N[C@H]1CCC[C@@H](n2cnnc2)C1` [Compound 2Abo, 3-ethyl-N-[(1S,3R)-3-(4H-1,2,4-triazol-4-yl)cyclohexyl]-3′,5′-bis(trifluoromethyl)biphenyl-4-sulfonamide] yielded a 50% inhibitory concentration (IC50) of 0.013 µM.

Turning to `CCc1cc([N+](=O)[O-])ccc1S(=O)(=O)N[C@H]1CCC[C@@H](n2cnnc2)C1` [Compound 2Ae, 2-ethyl-4-nitro-N-[(1S,3R)-3-(4H-1,2,4-triazol-4-yl)cyclohexyl]benzenesulfonamide], the 50% inhibitory concentration (IC50) worked out at 0.381 µM. `CCc1cc(-c2ccc(OC)nc2)ccc1S(=O)(=O)N[C@H]1CCC[C@@H](n2cnnc2)C1` [Compound 2Ag, 2-ethyl-4-(6-methoxypyridin-3-yl)-N-[(1S,3R)-3-(4H-1,2,4-triazol-4-yl)cyclohexyl]benzenesulfonamide] showed an IC50 of 0.0099 µM. Molecule `CCc1cc(-c2ccc(C#N)nc2)ccc1S(=O)(=O)N[C@H]1CCC[C@@H](n2cnnc2)C1` [Compound 2Ah, 4-(6-cyanopyridin-3-yl)-2-ethyl-N-[(1S,3R)-3-(4H-1,2,4-triazol-4-yl)cyclohexyl]benzenesulfonamide] gave an IC50 of 0.57 µM.

`CCc1cc(-c2ccc(C)nc2)ccc1S(=O)(=O)N[C@H]1CCC[C@@H](n2cnnc2)C1` [Compound 2Ai, 2-ethyl-4-(6-methylpyridin-3-yl)-N-[(1S,3R)-3-(4H-1,2,4-triazol-4-yl)cyclohexyl]benzenesulfonamide] gave an IC50 of 0.119 µM. The result for `CCc1cc(-c2cnc(N)nc2)ccc1S(=O)(=O)N[C@H]1CCC[C@@H](n2cnnc2)C1` [Compound 2Aj, 4-(2-aminopyrimidin-5-yl)-2-ethyl-N-[(1S,3R)-3-(4H-1,2,4-triazol-4-yl)cyclohexyl]benzenesulfonamide] reads 1.06 µM; that for `CCc1cc(-c2ccncc2)ccc1S(=O)(=O)N[C@H]1CCC[C@@H](n2cnnc2)C1` [Compound 2Ak, 2-ethyl-4-pyridin-4-yl-N-[(1S,3R)-3-(4H-1,2,4-triazol-4-yl)cyclohexyl]benzenesulfonamide], 0.095 µM.

The molecule `CCc1cc(-c2ccccc2F)ccc1S(=O)(=O)N[C@H]1CCC[C@@H](n2cnnc2)C1` [Compound 2Al, 3-ethyl-2′-fluoro-N-[(1S,3R)-3-(4H-1,2,4-triazol-4-yl)cyclohexyl]benzenesulfonamide] returned an IC50 of 0.022 µM. The result for `CCc1cc(-c2ccc(F)cc2)ccc1S(=O)(=O)N[C@H]1CCC[C@@H](n2cnnc2)C1` [Compound 2An, 3-ethyl-4′-fluoro-N-[(1S,3R)-3-(4H-1,2,4-triazol-4-yl)cyclohexyl]benzenesulfonamide] reads 0.017 µM; that for `CCc1cc(-c2cccnc2)ccc1S(=O)(=O)N[C@H]1CCC[C@@H](n2cnnc2)C1` [Compound 2Ao, 2-ethyl-4-pyridin-3-yl-N-[(1S,3R)-3-(4H-1,2,4-triazol-4-yl)cyclohexyl]benzenesulfonamide], 0.159 µM. In the case of `CCc1cc(-c2ccc(OC)cc2)ccc1S(=O)(=O)N[C@H]1CCC[C@@H](n2cnnc2)C1` [Compound 2Ap, 3-ethyl-4′-methoxy-N-[(1S,3R)-3-(4H-1,2,4-triazol-4-yl)cyclohexyl]biphenyl-4-sulfonamide], the IC50 is 0.027 µM. For the molecule `CCc1cc(-c2cccnc2OC)ccc1S(=O)(=O)N[C@H]1CCC[C@@H](n2cnnc2)C1` [Compound 2Aq, 2-ethyl-4-(2-methoxypyridin-3-yl)-N-[(1S,3R)-3-(4H-1,2,4-triazol-4-yl)cyclohexyl]benzenesulfonamide], the IC50 is 0.027 µM. The result for `CCc1cc(-c2cccc(OC)c2)ccc1S(=O)(=O)N[C@H]1CCC[C@@H](n2cnnc2)C1` [Compound 2Ar, 3-ethyl-3′-methoxy-N-[(1S,3R)-3-(4H-1,2,4-triazol-4-yl)cyclohexyl]biphenyl-4-sulfonamide] reads 0.027 µM; that for `CCc1cc(-c2ccccc2OC)ccc1S(=O)(=O)N[C@H]1CCC[C@@H](n2cnnc2)C1` [Compound 2As, 3-ethyl-2′-methoxy-N-[(1S,3R)-3-(4H-1,2,4-triazol-4-yl)cyclohexyl]biphenyl-4-sulfonamide], 0.016 µM.
